Assay results from PubChem BioAssay (NCI).
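A five-concentration, 48-hour dose response in 96-well plates underlies each endpoint, interpolated linearly between surrounding concentrations. TGI denotes the concentration required for complete inhibition of growth.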

Assays:
Assay in all cases: inhibition of tumour cell growth, NCI panel, 48 h
OVCAR-3 ovarian = tested on: OVCAR-3 ovarian
HCT-116 colon = tested on: HCT-116 colon
SF-539 CNS = tested on: SF-539 CNS
786-0 renal = tested on: 786-0 renal
SNB-75 CNS = tested on: SNB-75 CNS
OVCAR-4 ovarian = tested on: OVCAR-4 ovarian
HOP-92 NSCLC = tested on: HOP-92 NSCLC
HOP-62 NSCLC = tested on: HOP-62 NSCLC
HT29 colon = tested on: HT29 colon
M19-MEL melanoma = tested on: M19-MEL melanoma
SN12C renal = tested on: SN12C renal
OVCAR-8 ovarian = tested on: OVCAR-8 ovarian
RXF 393 renal = tested on: RXF 393 renal
SK-MEL-5 melanoma = tested on: SK-MEL-5 melanoma
UO-31 renal = tested on: UO-31 renal
NCI-H460 lung = tested on: NCI-H460 lung
CAKI-1 renal = tested on: CAKI-1 renal
SF-295 CNS = tested on: SF-295 CNS
ACHN renal = tested on: ACHN renal
HCT-15 colon = tested on: HCT-15 colon
LXFL 529 NSCLC = tested on: LXFL 529 NSCLC
UACC-62 melanoma = tested on: UACC-62 melanoma
SK-OV-3 ovarian = tested on: SK-OV-3 ovarian
U251 CNS = tested on: U251 CNS
CCRF-CEM leukemia = tested on: CCRF-CEM leukemia
KM12 colon = tested on: KM12 colon
NCI-H522 lung = tested on: NCI-H522 lung
XF 498 CNS = tested on: XF 498 CNS
LOX IMVI melanoma = tested on: LOX IMVI melanoma
DMS 273 small cell lung = tested on: DMS 273 small cell lung
TK-10 renal = tested on: TK-10 renal
KM20L2 colon = tested on: KM20L2 colon
COLO 205 colon = tested on: COLO 205 colon
SNB-19 CNS = tested on: SNB-19 CNS
RXF-631 renal = tested on: RXF-631 renal
A498 renal = tested on: A498 renal
NCI-H23 lung = tested on: NCI-H23 lung
SF-268 CNS = tested on: SF-268 CNS
DLD-1 colon = tested on: DLD-1 colon
MOLT-4 leukemia = tested on: MOLT-4 leukemia
SK-MEL-28 melanoma = tested on: SK-MEL-28 melanoma
UACC-257 melanoma = tested on: UACC-257 melanoma
OVCAR-5 ovarian = tested on: OVCAR-5 ovarian
NCI-H226 lung = tested on: NCI-H226 lung
EKVX NSCLC = tested on: EKVX NSCLC
HCC-2998 colon = tested on: HCC-2998 colon
K-562 leukemia = tested on: K-562 leukemia
SK-MEL-2 melanoma = tested on: SK-MEL-2 melanoma
A549 NSCLC = tested on: A549 NSCLC
HL-60(TB) leukemia = tested on: HL-60(TB) leukemia
IGROV1 ovarian = tested on: IGROV1 ovarian
RPMI-8226 leukemia = tested on: RPMI-8226 leukemia
SW-620 colon = tested on: SW-620 colon
M14 melanoma = tested on: M14 melanoma
MALME-3M melanoma = tested on: MALME-3M melanoma
DMS 114 small cell lung = tested on: DMS 114 small cell lung
SNB-78 CNS = tested on: SNB-78 CNS
SR leukemia = tested on: SR leukemia
HOP-18 NSCLC = tested on: HOP-18 NSCLC

In the case of `Cc1cc(Cl)cc2c1NC(=O)C2(O)CC(=O)c1ccc(Br)cc1` (configuration not stated), the TGI (OVCAR-3 ovarian) is reported as > 100 µM, the TGI (HCT-116 colon) is reported as > 100 µM and the TGI (SF-539 CNS) is reported as > 100 µM. The TGI (786-0 renal) was > 100 µM, the TGI (SNB-75 CNS) was > 100 µM and the TGI (OVCAR-4 ovarian) was > 54.6 µM. The TGI (HOP-92 NSCLC) was > 100 µM, the TGI (HOP-62 NSCLC) was > 100 µM and the TGI (HT29 colon) was > 100 µM. The TGI (M19-MEL melanoma) was > 55 µM, the TGI (SN12C renal) was > 100 µM and the TGI (OVCAR-8 ovarian) was > 100 µM. For the same molecule, the TGI (RXF 393 renal) was 56.9 µM, the TGI (SK-MEL-5 melanoma) was 57.8 µM and the TGI (UO-31 renal) was > 100 µM. The TGI (NCI-H460 lung) was > 100 µM, the TGI (CAKI-1 renal) was > 100 µM and the TGI (SF-295 CNS) was > 100 µM. The TGI (ACHN renal) was > 100 µM, the TGI (HCT-15 colon) was > 100 µM and the TGI (LXFL 529 NSCLC) was > 100 µM. The TGI (UACC-62 melanoma) was 56.2 µM, the TGI (SK-OV-3 ovarian) was > 100 µM and the TGI (U251 CNS) was > 100 µM. For the same molecule, the TGI (CCRF-CEM leukemia) was 42.7 µM, the TGI (KM12 colon) was > 100 µM and the TGI (NCI-H522 lung) was > 100 µM. The TGI (XF 498 CNS) was 76.2 µM, the TGI (LOX IMVI melanoma) was > 100 µM and the TGI (DMS 273 small cell lung) was > 100 µM. The TGI (TK-10 renal) was > 100 µM, the TGI (KM20L2 colon) was > 100 µM and the TGI (COLO 205 colon) was > 100 µM. The TGI (SNB-19 CNS) was > 100 µM, the TGI (RXF-631 renal) was > 100 µM and the TGI (A498 renal) was > 70.8 µM. The TGI (NCI-H23 lung) was 99.4 µM, the TGI (SF-268 CNS) was > 100 µM and the TGI (DLD-1 colon) was > 100 µM. The TGI (MOLT-4 leukemia) was 46.5 µM, the TGI (SK-MEL-28 melanoma) was 97.9 µM and the TGI (UACC-257 melanoma) was > 100 µM. The TGI (OVCAR-5 ovarian) was > 100 µM, the TGI (NCI-H226 lung) was > 100 µM and the TGI (EKVX NSCLC) was > 100 µM. The TGI (HCC-2998 colon) was > 100 µM, the TGI (K-562 leukemia) was > 100 µM and the TGI (SK-MEL-2 melanoma) was > 100 µM. The TGI (A549 NSCLC) was > 100 µM, the TGI (HL-60(TB) leukemia) was 48.2 µM and the TGI (IGROV1 ovarian) was > 100 µM. For the same molecule, the TGI (RPMI-8226 leukemia) was > 100 µM, the TGI (SW-620 colon) was > 100 µM and the TGI (M14 melanoma) was > 100 µM. For the same molecule, the TGI (MALME-3M melanoma) was > 100 µM and the TGI (DMS 114 small cell lung) was > 100 µM.
For `Cc1cc2c(=O)c3ccc(Cl)cc3[nH]c2c(C(N)=O)c1C`, the TGI (OVCAR-3 ovarian) was > 100 µM, the TGI (HCT-116 colon) was > 100 µM and the TGI (SF-539 CNS) was > 100 µM. For the same molecule, the TGI (786-0 renal) was > 100 µM, the TGI (SNB-75 CNS) was > 100 µM and the TGI (OVCAR-4 ovarian) was > 100 µM. The TGI (HOP-92 NSCLC) was > 100 µM, the TGI (HOP-62 NSCLC) was > 100 µM and the TGI (HT29 colon) was > 100 µM. The TGI (M19-MEL melanoma) was > 100 µM, the TGI (SN12C renal) was > 100 µM and the TGI (OVCAR-8 ovarian) was > 100 µM. For the same molecule, the TGI (SK-MEL-5 melanoma) was > 100 µM, the TGI (SNB-78 CNS) was > 100 µM and the TGI (UO-31 renal) was > 100 µM. The TGI (NCI-H460 lung) was > 100 µM, the TGI (SF-295 CNS) was > 100 µM and the TGI (ACHN renal) was > 100 µM. The TGI (HCT-15 colon) was > 100 µM, the TGI (LXFL 529 NSCLC) was > 100 µM and the TGI (UACC-62 melanoma) was > 100 µM. For the same molecule, the TGI (SK-OV-3 ovarian) was > 100 µM, the TGI (U251 CNS) was > 100 µM and the TGI (CCRF-CEM leukemia) was > 100 µM. The TGI (KM12 colon) was > 100 µM, the TGI (NCI-H522 lung) was > 100 µM and the TGI (XF 498 CNS) was > 100 µM. For the same molecule, the TGI (LOX IMVI melanoma) was > 100 µM, the TGI (DMS 273 small cell lung) was > 100 µM and the TGI (TK-10 renal) was > 100 µM. The TGI (KM20L2 colon) was > 100 µM, the TGI (COLO 205 colon) was > 100 µM and the TGI (SNB-19 CNS) was > 100 µM. For the same molecule, the TGI (RXF-631 renal) was > 100 µM, the TGI (A498 renal) was > 100 µM and the TGI (NCI-H23 lung) was > 100 µM. For the same molecule, the TGI (SF-268 CNS) was > 100 µM, the TGI (DLD-1 colon) was > 100 µM and the TGI (MOLT-4 leukemia) was > 100 µM. The TGI (SK-MEL-28 melanoma) was > 100 µM, the TGI (UACC-257 melanoma) was > 100 µM and the TGI (OVCAR-5 ovarian) was > 100 µM. The TGI (EKVX NSCLC) was > 100 µM, the TGI (HCC-2998 colon) was > 100 µM and the TGI (K-562 leukemia) was > 100 µM. For the same molecule, the TGI (SK-MEL-2 melanoma) was > 100 µM, the TGI (A549 NSCLC) was > 100 µM and the TGI (HL-60(TB) leukemia) was > 100 µM. For the same molecule, the TGI (IGROV1 ovarian) was > 100 µM, the TGI (RPMI-8226 leukemia) was > 100 µM and the TGI (SW-620 colon) was > 100 µM. The TGI (M14 melanoma) was > 100 µM, the TGI (MALME-3M melanoma) was > 100 µM and the TGI (DMS 114 small cell lung) was > 100 µM.
With `O=[N+]([O-])c1cc(/C=N\NS(=O)(=O)c2ccc(Cl)cc2)c(O)c([N+](=O)[O-])c1` the TGI (SR leukemia) was 45.2 µM, the TGI (OVCAR-3 ovarian) was 54.1 µM and the TGI (HCT-116 colon) was > 100 µM. For the same molecule, the TGI (SF-539 CNS) was 44.2 µM, the TGI (786-0 renal) was > 100 µM and the TGI (SNB-75 CNS) was 73.5 µM. The TGI (OVCAR-4 ovarian) was > 100 µM, the TGI (HOP-92 NSCLC) was > 100 µM and the TGI (HOP-62 NSCLC) was > 100 µM. The TGI (HT29 colon) was 58.9 µM, the TGI (M19-MEL melanoma) was > 100 µM and the TGI (SN12C renal) was 87.4 µM. The TGI (OVCAR-8 ovarian) was 64.5 µM, the TGI (RXF 393 renal) was 91.9 µM and the TGI (SK-MEL-5 melanoma) was 66.6 µM. The TGI (SNB-78 CNS) was > 100 µM, the TGI (UO-31 renal) was > 100 µM and the TGI (NCI-H460 lung) was 54.4 µM. For the same molecule, the TGI (CAKI-1 renal) was > 100 µM, the TGI (SF-295 CNS) was > 100 µM and the TGI (ACHN renal) was > 100 µM. The TGI (HCT-15 colon) was 53.1 µM, the TGI (LXFL 529 NSCLC) was > 100 µM and the TGI (UACC-62 melanoma) was > 100 µM. It also gave a TGI (SK-OV-3 ovarian) of 83.5 µM, a TGI (U251 CNS) of 54.3 µM and a TGI (CCRF-CEM leukemia) of 78.5 µM. The TGI (KM12 colon) was 67.1 µM, the TGI (NCI-H522 lung) was 52.4 µM and the TGI (LOX IMVI melanoma) was > 100 µM. For the same molecule, the TGI (DMS 273 small cell lung) was 73.3 µM, the TGI (TK-10 renal) was > 100 µM and the TGI (KM20L2 colon) was 74.1 µM. For the same molecule, the TGI (COLO 205 colon) was 31 µM, the TGI (SNB-19 CNS) was 79.5 µM and the TGI (RXF-631 renal) was > 100 µM. The TGI (A498 renal) was 83 µM, the TGI (NCI-H23 lung) was 50.8 µM and the TGI (SF-268 CNS) was > 100 µM. The TGI (DLD-1 colon) was > 100 µM, the TGI (MOLT-4 leukemia) was 86 µM and the TGI (SK-MEL-28 melanoma) was > 100 µM. The TGI (UACC-257 melanoma) was > 100 µM, the TGI (HOP-18 NSCLC) was > 100 µM and the TGI (OVCAR-5 ovarian) was > 100 µM. The TGI (EKVX NSCLC) was > 100 µM, the TGI (HCC-2998 colon) was > 100 µM and the TGI (K-562 leukemia) was 79.5 µM. The TGI (SK-MEL-2 melanoma) was > 100 µM, the TGI (A549 NSCLC) was > 100 µM and the TGI (HL-60(TB) leukemia) was 54 µM. For the same molecule, the TGI (IGROV1 ovarian) was > 100 µM, the TGI (RPMI-8226 leukemia) was 80.9 µM and the TGI (SW-620 colon) was > 100 µM. For the same molecule, the TGI (M14 melanoma) was 99.6 µM, the TGI (MALME-3M melanoma) was > 100 µM and the TGI (DMS 114 small cell lung) was > 100 µM.
